Assay results published in patent US11542254B2, “Methods and composition of 4-substituted benzoylpiperazine-1-substituted carbonyls as beta-catenin/B-cell lymphoma 9 inhibitors” (University of Utah Research Foundation, priority 2016, dated 2023).
Where a name gives a salt, the structure may show the parent alone.

Biological target: β-catenin/BCL9 PPI (Homo sapiens (Human), UniProt P35222)
Assay: AlphaScreen competitive inhibition assay, wild-type β-catenin/BCL9 PPI
Type: binding
Settings: for Ki / AlphaScreen Ki relative to compound 2 (higher / worse): wild-type β-catenin/BCL9 PPI; for Ki: AlphaScreen competitive inhibition, mean ± SD (n=3); for AlphaScreen Ki relative to compound 2 (higher / worse): compared with compound 2
Method: Cells were cultured in LB medium with 30 μg/mL kanamycin until the OD600 was approximately 0.8, and then protein expression was induced with 400 μM of IPTG at 20° C. overnight. Cells were lysed by sonication. […] Native non-denaturing gel electrophoresis was performed to confirm the homogeneity of the purified proteins. Thermal-shift assay was performed on an iCycler iQ Real Time Detection System (Bio-Rad) to monitor protein stability and detect protein aggregation. Protein unfolding was evaluated through measuring the fluorescence changes of fluorescent dye Sypro Orange when interacting with wild-type or mutant β-catenin proteins. A temperature increment of 1°/min was applied. […] All spectra were recorded at room temperature, and the baseline control containing all of the substances except protein. Sample were prepared at a concentration around 1-5 μM in a buffer of 10 mM potassium phosphate and 100 mM potassium fluoride at pH 7.0 to ensure that the transmission of light through the sample was not restricted. […] Proteins were aliquoted and stored at −80° C.
25. Alphascreen Competitive Inhibition Assays Using Wild-Type and Mutant β-Catenin Proteins

Sequence of β-catenin/BCL9 PPI (P35222 138-686): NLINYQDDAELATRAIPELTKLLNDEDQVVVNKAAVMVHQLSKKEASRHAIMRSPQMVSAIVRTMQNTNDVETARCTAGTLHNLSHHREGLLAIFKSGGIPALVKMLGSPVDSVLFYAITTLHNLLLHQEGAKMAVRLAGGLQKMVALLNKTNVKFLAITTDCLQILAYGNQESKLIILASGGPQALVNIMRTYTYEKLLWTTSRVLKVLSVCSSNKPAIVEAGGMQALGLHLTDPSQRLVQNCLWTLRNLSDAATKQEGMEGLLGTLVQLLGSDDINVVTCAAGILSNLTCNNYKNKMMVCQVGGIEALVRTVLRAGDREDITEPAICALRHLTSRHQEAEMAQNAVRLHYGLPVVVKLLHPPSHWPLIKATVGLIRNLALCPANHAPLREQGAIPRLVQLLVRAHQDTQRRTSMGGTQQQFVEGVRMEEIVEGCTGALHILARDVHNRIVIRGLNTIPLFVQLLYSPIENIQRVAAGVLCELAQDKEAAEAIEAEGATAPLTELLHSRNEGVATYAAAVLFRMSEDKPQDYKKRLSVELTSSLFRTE

Ki	AlphaScreen Ki relative to compound 2 (higher / worse)	inhibition of β-catenin/BCL9 PPI at the highest concentration tested (500 μM, AlphaScreen)	SMILES
130 ± 6.9 µM			NCCOc1ccc(C(N)=O)cc1-c1ccc(F)cc1 [Compound 1, 2-((5-carbamoyl-4′-fluoro-[1,1′-biphenyl]-2-yl)oxy)ethan-1-aminium chloride]
82 ± 12 µM	4 fold		Cl.Cl.O=C(c1cc(F)cc(N2CCNCC2)c1)N1CCN(C(=O)c2cnc(O[C@H]3CCNC3)c(-c3ccc(F)cc3)c2)CC1 [Compound 3, (S)-(4-(3-Fluoro-5-(piperazin-1-yl)benzoyl)piperazin-1-yl)(5-(4-fluorophenyl)-6-(pyrrolidin-3-yloxy)pyridin-3-yl)methanone hydrochloride]
> 500 µM		no obvious inhibition	Cl.Cl.NCCc1cc(F)cc(C(=O)N2CCN(C(=O)c3cnc(O[C@H]4CCNC4)c(-c4ccc(F)cc4)c3)CC2)c1 [Compound 4, (S)-(4-(3-(2-Aminoethyl)-5-fluorobenzoyl)piperazin-1-yl)(5-(4-fluorophenyl)-6-(pyrrolidin-3-yloxy)pyridin-3-yl)methanone hydrochloride]
67 ± 13 µM			NCCc1cc(F)cc(C(=O)N2CCN(C(=O)c3ccc(O[C@H]4CCNC4)c(-c4ccc(F)cc4)c3)CC2)c1 [Compound 5, (S)-(4-(3-(2-Aminoethyl)-5-fluorobenzoyl)piperazin-1-yl)(4′-fluoro-6-(pyrrolidin-3-yloxy)-[1,1′-biphenyl]-3-yl)methanone hydrochloride]
48 ± 11 µM			O=C(c1cc(F)cc(O[C@H]2CCNC2)c1)N1CCN(C(=O)c2ccc(O[C@H]3CCNC3)c(-c3ccc(F)cc3)c2)CC1 [Compound 6, (4-(3-Fluoro-5-(((S)-pyrrolidin-3-yl)oxy)benzoyl)piperazin-1-yl) (4′-fluoro-6-(((S)-pyrrolidin-3-yl)oxy)-[1,1′-biphenyl]-3-yl) methanone hydrochloride]
35 ± 9.6 µM			O=C(c1cc(F)cc(O[C@@H]2CCNC2)c1)N1CCN(C(=O)c2ccc(O[C@H]3CCNC3)c(-c3ccc(F)cc3)c2)CC1 [Compound 7, (4-(3-Fluoro-5-(((R)-pyrrolidin-3-yl)oxy)benzoyl)piperazin-1-yl) (4′-fluoro-6-(((S)-pyrrolidin-3-yl)oxy)-[1,1′-biphenyl]-3-yl) methanone hydrochloride]
57 ± 33 µM	approximately 3 fold		Cl.Cl.O=C(c1cc(F)cc(N2CCNCC2)c1)N1CCN(C(=O)c2ccc(O[C@H]3CCNC3)c(-c3ccc(F)c(F)c3)c2)CC1 [Compound 9, (S)-(4-(3′,4′-Difluoro-6-(pyrrolidin-3-yloxy)-[1,1′-biphenyl]-3-carbonyl)piperazin-1-yl)(3-fluoro-5-(piperazin-1-yl)phenyl) methanone hydrochloride]
490 ± 150 µM			Cc1cc(C(=O)N2CCN(C(=O)c3cc(F)cc(N4CCNCC4)c3)CC2)ccc1O[C@H]1CCNC1 [Compound 17, (S)-(4-(3-Fluoro-5-(piperazin-1-yl)benzoyl)piperazin-1-yl)(3-methyl-4-(pyrrolidin-3-yloxy)phenyl) methanone hydrochloride]
76 ± 9.9 µM			O=C(c1cc(Cl)cc(N2CCNCC2)c1)N1CCN(C(=O)c2ccc(O[C@H]3CCNC3)c(C3CCCCC3)c2)CC1 [Compound 18, (S)-(4-(3-Chloro-5-(piperazin-l-yl)benzoyl)piperazin-1-yl)(3-cyclohexyl-4-(pyrrolidin-3-yloxy)phenyl)methanone hydrochloride]
25 ± 1.7 µM			Cc1cc(C(=O)N2CCN(C(=O)c3ccc(O[C@H]4CCNC4)c(C4CCCCC4)c3)CC2)cc(N2CCNCC2)c1 [Compound 19, (S)-(4-(3-Cyclohexyl-4-(pyrrolidin-3-yloxy)benzoyl)piperazin-1-yl) (3-methyl-5-(piperazin-1-yl)phenyl)methanone hydrochloride]
69 ± 8.7 µM			O=C(c1cc(N2CCNCC2)cc(C(F)(F)F)c1)N1CCN(C(=O)c2ccc(O[C@H]3CCNC3)c(C3CCCCC3)c2)CC1 [Compound 20, (S)-(4-(3-Cyclohexyl-4-(pyrrolidin-3-yloxy)benzoyl)piperazin-1-yl) (3-(piperazin-1-yl)-5-(trifluoromethyl)phenyl) methanone hydrochloride]
55 ± 2.7 µM			O=C(c1cc(Br)cc(N2CCNCC2)c1)N1CCN(C(=O)c2ccc(O[C@H]3CCNC3)c(C3CCCCC3)c2)CC1 [Compound 21, (S)-(4-(3-Bromo-5-(piperazin-1-yl)benzoyl)piperazin-1-yl)(3-cyclohexyl-4-(pyrrolidin-3-yloxy)phenyl)methanone hydrochloride]
110 ± 50 µM			C[C@H]1CN(C(=O)c2cc(F)cc(N3CCNCC3)c2)CCN1C(=O)c1ccc(O[C@H]2CCNC2)c(-c2ccc(F)cc2)c1 [Compound 62, 4-(3-Fluoro-5-((S)-4-(4′-fluoro-6-(((S)-pyrrolidin-1-ium-3-yl)oxy)-[1,1′-biphenyl]-3-carbonyl)-3-methylpiperazine-1-carbonyl)phenyl)piperazin-1-ium chloride]
10 ± 10 µM			CC[C@H]1CN(C(=O)c2cc(F)cc(N3CCNCC3)c2)CCN1C(=O)c1ccc(O[C@H]2CCNC2)c(-c2ccc(F)cc2)c1 [Compound 63, 4-(3-((S)-3-Ethyl-4-(4′-fluoro-6-(((S)-pyrrolidin-1-ium-3-yl)oxy)-[1,1′-biphenyl]-3-carbonyl)piperazine-1-carbonyl)-5-fluorophenyl)piperazin-1-ium chloride]

SMILES	Ki	AlphaScreen Ki relative to compound 2 (higher / worse)	inhibition of β-catenin/BCL9 PPI at the highest concentration tested (500 μM, AlphaScreen)
O=C(c1cc(F)cc(C2CCNCC2)c1)N1CCN(C(=O)c2ccc(O[C@H]3CCNC3)c(-c3ccc(F)cc3)c2)CC1 [Compound 8, (S)-(4-(3-Fluoro-5-(piperidin-4-yl)benzoyl)piperazin-1-yl)(4′-fluoro-6-(pyrrolidin-3-yloxy)-[1,1′-biphenyl]-3-yl)methanone hydrochloride]	20 ± 2.3 µM		
O=C(c1cc(F)cc(N2CCNCC2)c1)N1CCN(C(=O)c2ccc(O[C@H]3CCNC3)c(C3CCCC3)c2)CC1 [Compound 11, (S)-(4-(3-Cyclopentyl-4-(pyrrolidin-3-yloxy)benzoyl)piperazin-1-yl)(3-fluoro-5-(piperazin-1-yl)phenyl)methanone hydrochloride]	37 ± 8 µM		
O=C(c1cc(F)cc(N2CCNCC2)c1)N1CCN(C(=O)c2ccc(O[C@H]3CCNC3)c(C3CCC(C(F)(F)F)CC3)c2)CC1 (stereo partly drawn) [Compound 13, (S)-(4-(3-Fluoro-5-(piperazin-1-yl)benzoyl)piperazin-1-yl)(4-(pyrrolidin-3-yloxy)-3-(4-(trifluoromethyl)cyclohexyl)phenyl)methanone hydrochloride]	170 ± 7.5 µM		
CC1(C)CCC(c2cc(C(=O)N3CCN(C(=O)c4cc(F)cc(N5CCNCC5)c4)CC3)ccc2O[C@H]2CCNC2)CC1 [Compound 15, (S)-(4-(3-(4,4-Dimethylcyclohexyl)-4-(pyrrolidin-3-yloxy)benzoyl)piperazin-1-yl) (3-fluoro-5-(piperazin-1-yl)phenyl) methanone hydrochloride]	45 ± 6.7 µM		
O=C(c1cc(F)cc(N2CCNCC2)c1)N1CCN(C(=O)c2ccc(O[C@H]3CCNC3)c(C3CCC(F)(F)CC3)c2)CC1 [Compound 16, (S)-(4-(3-(4,4-Difluorocyclohexyl)-4-(pyrrolidin-3-yloxy)benzoyl)piperazin-1-yl)(3-fluoro-5-(piperazin-1-yl)phenyl)methanone hydrochloride]	53 ± 22 µM		
